Assays:
[1] = biological target: T1, BACE1 (Homo sapiens (Human), UniProt P56817); test: In vitro enzymatic BACE1 FRET assay; type: biochemical; conditions: pH 4.5, read-out: BACE1 Enzyme IC50
Target sequence in this assay (P56817 46-501): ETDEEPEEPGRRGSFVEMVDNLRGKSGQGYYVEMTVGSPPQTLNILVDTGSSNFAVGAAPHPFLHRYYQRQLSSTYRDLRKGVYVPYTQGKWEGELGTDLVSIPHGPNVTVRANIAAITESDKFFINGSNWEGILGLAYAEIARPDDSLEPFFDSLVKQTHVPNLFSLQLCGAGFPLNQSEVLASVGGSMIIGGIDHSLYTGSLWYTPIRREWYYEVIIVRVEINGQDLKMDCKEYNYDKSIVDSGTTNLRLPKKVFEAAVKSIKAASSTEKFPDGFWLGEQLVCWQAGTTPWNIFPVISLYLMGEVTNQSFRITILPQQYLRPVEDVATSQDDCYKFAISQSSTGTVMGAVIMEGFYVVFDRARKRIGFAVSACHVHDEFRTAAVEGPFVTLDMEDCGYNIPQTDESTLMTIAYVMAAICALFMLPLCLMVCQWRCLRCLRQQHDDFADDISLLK

[2] = biological target: human recombinant BACE2 (Homo sapiens (Human), UniProt Q9Y5Z0); test: In vitro enzymatic BACE2 FRET assay; type: biochemical; conditions: pH 4.5, read-out: BACE2 Enzyme IC50
[3] = biological target: T1, BACE1; test: In vitro BACE1 cell-based assay (Aβ40 in conditioned medium of cells stably expressing APP, HTRF)
Experimental: In Vitro BACE1 Cell-Based Assay
The cell-based assay measures inhibition or reduction of Aβ40 in conditioned medium of test compound treated cells expressing amyloid precursor protein. Cells stably expressing Amyloid Precursor Protein (APP) were plated at a density of 45K cells/well in 384 well plates (Corning/BioCoat 354663). The test compounds were then added to cells in 22-point dose response concentrations with the starting concentration being 62.5 μM. The compounds were diluted from stock solutions in DMSO and the final DMSO concentration of the test compounds on cells was 0.625%. The cells were cultivated overnight at 37° C. and 5% CO2 in DMEM supplemented with 10% FBS. After 24 h of incubation with the test compounds, the conditioned media was collected and the Aβ40 levels were determined using HTRF (Homogeneous Time Resolved Fluorescence). The IC50 of the compound was calculated from the percent of control or percent inhibition of Aβ40 as a function of the concentration of the test compound.
The HTRF to detect Aβ40 was performed in 384 well plates (Costar 3658). The antibody pair that were used to detect Aβ40 from cell supernatants were ConfAb40 antibody (Amgen in-house) and biotinylated 6E10 (BIOLEGEND). As an alternative to ConfAb40, a commercially available antibody, Anti-beta Amyloid 1-40 antibody [BDI350] from Abcam, Cambridge, Mass. 02139-1517 (Product code: ab20068), may be used in this assay. The concentrations were 0.35 μg/mL of ConfAb40 antibody and 1.33 μg/mL of 6E10-biotinylated antibody, as well as 4.5 μg/mL of Streptavidin Allophycocyanin Conjugate (ThermoFisher Scientific) in HTRF Buffer ([…], 1% BSA, 0.5% Tween 20).
The conditioned media was incubated with above antibodies and Streptavidin Allophycocyanin Conjugate for 30-60 minutes at 23° C. The final readout was performed on Envision from PerkinElmer.
Target sequence in this assay (P56817 46-501, species assumed): as the sequence (P56817 46-501) above

[4] = biological target: Recombinant CatD (Homo sapiens (Human), UniProt P07339); test: In vitro enzymatic Cathepsin D (CatD) FRET assay; type: biochemical; conditions: pH 3.5, read-out: Cat D Enzyme IC50
Recombinant CatD, sequence (P07339 65-412): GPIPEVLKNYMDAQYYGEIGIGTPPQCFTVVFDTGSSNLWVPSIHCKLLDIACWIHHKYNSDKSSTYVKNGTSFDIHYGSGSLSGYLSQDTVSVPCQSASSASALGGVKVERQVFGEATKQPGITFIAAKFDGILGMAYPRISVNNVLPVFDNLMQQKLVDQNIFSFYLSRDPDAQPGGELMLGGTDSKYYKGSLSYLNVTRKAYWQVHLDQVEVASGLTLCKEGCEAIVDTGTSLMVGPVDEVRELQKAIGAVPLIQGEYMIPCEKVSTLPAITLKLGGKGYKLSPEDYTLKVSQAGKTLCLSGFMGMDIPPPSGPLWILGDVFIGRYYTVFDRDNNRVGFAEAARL

[5] = cited from earlier work
[6] = system: Aβ peptide; conditions: nonhuman primates; cited from earlier work
[7] = system: Aβ peptide; conditions: oral dose of 95 mg once daily; cited from earlier work
[8] = system: pigment epithelium of the rat's eye; conditions: higher compound dose given for three months; cited from earlier work
[9] = system: Aβ peptide; conditions: sustained and dose-dependent; cited from earlier work

human recombinant BACE2, sequence (Q9Y5Z0 63-518): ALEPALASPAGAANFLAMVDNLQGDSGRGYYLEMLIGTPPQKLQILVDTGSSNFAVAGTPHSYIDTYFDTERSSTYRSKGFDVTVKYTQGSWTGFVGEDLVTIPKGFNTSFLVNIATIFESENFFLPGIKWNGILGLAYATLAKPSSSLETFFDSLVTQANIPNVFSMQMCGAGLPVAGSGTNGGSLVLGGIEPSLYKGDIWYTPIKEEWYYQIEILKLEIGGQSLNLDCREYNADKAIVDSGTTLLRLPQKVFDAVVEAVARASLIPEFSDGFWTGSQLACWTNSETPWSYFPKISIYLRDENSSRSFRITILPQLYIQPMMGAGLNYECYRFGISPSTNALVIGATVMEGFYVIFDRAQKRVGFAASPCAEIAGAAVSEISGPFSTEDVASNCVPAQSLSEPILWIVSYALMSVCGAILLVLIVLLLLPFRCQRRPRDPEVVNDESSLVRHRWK

In the case of `Cc1cc(C#N)cnc1C#Cc1cnc(F)c([C@@]2(C)N=C(N)S[C@@]3(C(=O)N4CCOCC4)CC32)c1` (stereo partly drawn) [Example 136, 6-((5-((1S,5S)-3-amino-5-methyl-1-(morpholine-4-carbonyl)-2-thia-4-azabicyclo[4.1.0]hept-3-en-5-yl)-6-fluoropyridin-3-yl)ethynyl)-5-methylnicotinonitrile], the IC50 [1] is reported as 37 nM, the IC50 [2] is reported as 974 nM and the IC50 [3] is reported as 181 nM. The IC50 [4] was greater than 400000 nM.
In the case of `Cc1cc(C#N)cnc1C#Cc1cnc(F)c([C@@]2(C)N=C(N)S[C@@]3(C(=O)N4CCCC4)CC32)c1` (stereo partly drawn) [Example 137, 6-((5-((1S,5S)-3-amino-5-methyl-1-(pyrrolidine-1-carbonyl)-2-thia-4-azabicyclo[4.1.0]hept-3-en-5-yl)-6-fluoropyridin-3-yl)ethynyl)-5-methylnicotinonitrile], the IC50 [1] is reported as 11 nM, the IC50 [2] is reported as 474 nM and the IC50 [3] is reported as 35 nM. It also gave an IC50 [4] greater than 400000 nM.
`NC1=N[C@](CF)(c2cc(C#Cc3cc(Cl)ccn3)ccc2F)[C@@H]2C[C@]2(CF)S1` [Example 138, (1S,5S,6S)-5-(5-((4-chloropyridin-2-yl)ethynyl)-2-fluorophenyl)-1,5-bis(fluoromethyl)-2-thia-4-azabicyclo[4.1.0]hept-3-en-3-amine] gave an IC50 [1] of 1120 nM, an IC50 [2] of 77 nM and an IC50 [3] of 4850 nM. It also gave an IC50 [4] of 903000 nM.
In the case of `C[C@H]1OC[C@]2(c3cc(NC(=O)c4cnc(C(F)F)cn4)ccc3F)N=C(N)SC[C@H]12` [Example E2609], the clinical safety concerns ([5]; repeated doses up to 200 mg, phase I clinical trial) is given as “did not show clinical significant safety concerns” and the “reduction in Aβ peptide levels in the CSF and plasma” value [6] is given as “significant reduction”.
In the case of `C[C@@]1(c2cc(NC(=O)c3ccc(C#N)cn3)ccc2F)C=CSC(N)=N1` [JNJ-54861911], the “Aβ peptide reduction in CSF” value [7] is given as “up to 95%”.
In the case of `C[C@@]1(c2cc(-c3cncnc3)c(F)cc2F)CCSC(N)=N1` [LY 2811376], the eye toxicity finding [8] is listed as “damaged the pigment epithelium of the rat's eye”.
For `CN1C(=N)N[C@](C)(c2cc(NC(=O)c3ccc(F)cn3)ccc2F)CS1(=O)=O` [MK-8931], the safety profile ([5]; phase I clinical trials) is given as “excellent safety profile with no immediately noticeable side effects” and the “CSF Aβ peptide concentrations” value [9] is given as “significantly reduced”.

From patent US10889581B2, “Cyclopropyl fused thiazine derivatives as beta-secretase inhibitors and methods of use” (AMGEN INC., priority 2016, dated 2021)
